In article PMC12640937, “Integrating drug effects on individual cardiac ionic currents and cardiac action potentials to understand nonclinical translation to clinical ECG changes” (Frontiers in Pharmacology, 2025):
Where “and” joins values, the source holds several entries; their conditions need not be identical. Equal values may be shown once. Read-outs that look alike come from different tables or passages of the source.

Key:
[1] = system: adult human primary ventricular trabeculae; conditions: mexiletine at 3X concentration as tested here; ref Qu et al., 2017; cited from earlier work
[2] = system: hERG1a and hERG1a/1b channels; conditions: cited from earlier work
[3] = system: INaL; set-up: method as in Wu et al., 2019; conditions: room temperature, ref Wu et al., 2019, cited from earlier work
[4] = biological target: hERG (Homo sapiens, UniProt Q12809); assay: in vitro; conditions: HEK293 cells stably expressing the hERG1a subunit, pH 7.4
[5] = system: IBa or Ba2+ current through CaV1.2 channels; conditions: read-out: IBa (Ba2+ current through CaV1.2) IC50; prior study; 36 °C; ref Crumb et al., 2016; cited from earlier work
[6] = system: clinical ECG; conditions: lidocaine or mexiletine co-administered with dofetilide; diltiazem with moxifloxacin; ref Johannesen et al., 2016; cited from earlier work
[7] = used to calculate free Cmax; no reference given; cited from earlier work
[8] = calculated with MW and protein binding; ref Johannesen et al., 2016; cited from earlier work
[9] = system: INaL (NaV1.5 channels); conditions: prior study, ref Crumb et al., 2016, cited from earlier work; for IC50: read-out: INaL IC50, veratridine, 36 °C
[10] = system: hERG; conditions: ref Crumb et al., 2016, cited from earlier work
[11] = biological target: hERG current (HEK293 cells expressing the hERG1a subunit) (Homo sapiens, UniProt Q12809); assay: cell-based
[12] = system: adult human primary ventricular trabeculae; assay: Action potential recordings from adult human ventricular trabeculae (sharp electrode)
[13] = system: Ba2+ current through CaV1.2 channels; set-up: method as in Ren et al., 2022; conditions: ∼37 °C; ref Ren et al., 2022; cited from earlier work
[14] = diltiazem 3.84 then 38.4 µM or nifedipine 0.23 then 1 µM, alone

hERG current (HEK293 cells expressing the hERG1a subunit), sequence (Q12809 whole entry): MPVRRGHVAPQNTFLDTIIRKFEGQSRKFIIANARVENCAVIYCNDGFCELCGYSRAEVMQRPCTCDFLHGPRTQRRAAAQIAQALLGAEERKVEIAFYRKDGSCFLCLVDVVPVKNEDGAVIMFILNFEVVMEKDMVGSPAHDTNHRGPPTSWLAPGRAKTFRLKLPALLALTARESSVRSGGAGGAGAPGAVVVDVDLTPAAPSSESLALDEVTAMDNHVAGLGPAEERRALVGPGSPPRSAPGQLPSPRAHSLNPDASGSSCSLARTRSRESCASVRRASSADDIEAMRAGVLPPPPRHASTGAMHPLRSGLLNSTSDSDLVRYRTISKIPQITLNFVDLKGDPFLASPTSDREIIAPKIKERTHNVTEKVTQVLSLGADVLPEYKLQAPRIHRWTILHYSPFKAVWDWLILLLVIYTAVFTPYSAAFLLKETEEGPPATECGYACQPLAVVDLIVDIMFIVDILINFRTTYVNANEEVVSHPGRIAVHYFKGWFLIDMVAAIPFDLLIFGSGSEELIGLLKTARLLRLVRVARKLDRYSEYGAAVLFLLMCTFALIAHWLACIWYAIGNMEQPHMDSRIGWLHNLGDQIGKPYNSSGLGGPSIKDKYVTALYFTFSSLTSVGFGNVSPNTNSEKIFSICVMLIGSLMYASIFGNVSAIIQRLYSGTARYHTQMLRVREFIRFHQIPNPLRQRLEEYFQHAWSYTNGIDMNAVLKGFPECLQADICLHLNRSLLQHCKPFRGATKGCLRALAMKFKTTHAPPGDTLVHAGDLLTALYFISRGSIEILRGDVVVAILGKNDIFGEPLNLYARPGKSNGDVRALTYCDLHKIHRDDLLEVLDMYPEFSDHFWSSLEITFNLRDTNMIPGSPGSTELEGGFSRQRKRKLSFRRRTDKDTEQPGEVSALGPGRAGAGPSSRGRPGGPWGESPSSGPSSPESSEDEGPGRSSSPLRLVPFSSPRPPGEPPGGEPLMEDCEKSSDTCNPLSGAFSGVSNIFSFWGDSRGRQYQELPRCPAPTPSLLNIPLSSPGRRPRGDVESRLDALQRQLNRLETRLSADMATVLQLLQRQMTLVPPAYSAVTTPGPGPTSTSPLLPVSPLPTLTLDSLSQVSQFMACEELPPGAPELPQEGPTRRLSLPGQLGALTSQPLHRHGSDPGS
hERG (Homo sapiens, UniProt Q12809), sequence (Q12809 whole entry): as above

## COc1ccccc1OCC(O)CN1CCN(CC(=O)Nc2c(C)cccc2C)CC1 (stereo not shown) [ranolazine]
[1]
  AP height: did not

## O=C1CC[C@@]2(O)[C@H]3Cc4ccc(O)c5c4[C@@]2(CCN3CC2CC2)[C@H]1O5 [naltrexone]
[2]; ref Tran et al., 2020
  pharmacological difference between hERG1a and hERG1a/1b channels: no pharmacological differences

## CCC(=O)C(CC(C)N(C)C)(c1ccccc1)c1ccccc1 (stereo not shown) [methadone]
[2]
  pharmacological difference between hERG1a and hERG1a/1b channels: no pharmacological differences

## CCN(CC)CC(=O)Nc1c(C)cccc1C [lidocaine]
[3]; read-out: INaL IC50 obtained in ATX-II
  IC50: 31.7 µM
[3]; read-out: INaL IC50 obtained in veratridine
  IC50: 395 µM

## Nc1nnc(-c2cccc(Cl)c2Cl)c(N)n1 [lamotrigine]
[1]
  AP height: reduced AP height

## buprenorphine
[2]
  pharmacological difference between hERG1a and hERG1a/1b channels: no pharmacological differences

## Cc1cccc(C)c1OCC(C)N (stereo not shown) [mexiletine]
[1]
  AP height: reduced AP height
[4]
  inhibition at 10 µM: ~20%
[5]
  IC50: 38.2 µM
[6]
  effect on hERG block-induced QTC and J-TpeakC prolongation: shortened by co-administration
[7]
  percent protein binding (PB): 55%
[8]
  free clinical Cmax: 3.6 µM
[9]
  IC50: 9.3 µM and 9 µM
[10]; 10 μM, highest concentration tested in prior study
  hERG current inhibition: ~10%
[11]
  IC50: 55.6 µM

## C=CCN1CC[C@]23c4c5ccc(O)c4O[C@H]2C(=O)CC[C@@]3(O)[C@H]1C5 [naloxone]
[2]; ref Tran et al., 2020
  pharmacological difference between hERG1a and hERG1a/1b channels: no pharmacological differences

## O=C(NCC1CCCCN1)c1cc(OCC(F)(F)F)ccc1OCC(F)(F)F (stereo not shown) [flecainide]
[1]
  AP height: reduced AP height

## CN(CCOc1ccc(NS(C)(=O)=O)cc1)CCc1ccc(NS(C)(=O)=O)cc1 [dofetilide]
[12]; dofetilide 0.1 µM alone, 1 Hz
  AP triangulation (APD90 minus APD30): resulting in AP triangulation
[12]; dofetilide in the presence of diltiazem or nifedipine
  AP triangulation: induced AP triangulation
[10]; read-out: hERG IC50, prior study, 36 °C
  IC50: […]

## COc1ccc([C@@H]2Sc3ccccc3N(CCN(C)C)C(=O)[C@@H]2OC(C)=O)cc1 [diltiazem]
[5]
  IC50: 0.112 µM
[13]
  IC50: 0.8 µM
[9]
  INaL inhibition when 50% of CaV1.2 channels were blocked: no inhibition
  IC50: 24.5 µM
[12]; [14]
  AP triangulation: resulting in AP triangulation
[10]; prior study
  hERG current inhibition when 50% of CaV1.2 channels were blocked: no inhibition

## COC(=O)C1=C(C)NC(C)=C(C(=O)OC)C1c1ccccc1[N+](=O)[O-] [nifedipine]
[12]; [14]
  AP triangulation: no AP triangulation
